By pIC50 is commonly meant the IC50 on a negative log10 scale, so that one unit is a factor of ten.

Test [1] concerns the target T1, human mTOR (His-tagged mTOR (1362C)) (Homo sapiens, UniProt P42345).
T1 construct: the 1362 to 2549 amino acid portion on the C terminus side of human mTOR; His tag (N); made in house
Nature of the test: mTOR kinase activity inhibition assay. The conditions noted are these: HTRF, read-out: IC50 against mTOR. It is filed as biochemical. The gist of the method:
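Crude His-tagged mTOR (aa 1362–2549) from stable HEK293 cells, with 8 μg/ml biotinylated peptide in 50 mM HEPES pH 7.5, 20 mM MnCl2; compound diluted in 20 μM ATP solution, reaction 3 h at room temperature. Phospho-peptide detected by HTRF (anti-phospho-S6K Thr389 cryptate/streptavidin-XL665, overnight at 4°C), 665/620 nm ratio. IC50 derived from curve fit of % inhibition.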
(In general: In TR-FRET formats the signal depends on donor and acceptor labels being close together.)

Test [2] concerns human ovary cancer cell strain IGROV1. The test is described as follows: Cell growth inhibition test (MTT), IGROV1. The conditions noted are these: IGROV-1, 72 h, IGROV1, 3 days culture, read-out: concentration exhibiting anti-cell effect (GI50). It counts as cell-based. The gist of the method: (§1)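 AN3CA, IGROV1 and HT29 seeded at 5000, 1000 and 5000 cells/well; compound added next day, 3 days at 37° C, 5% CO2. MTT 4 h, formazan in DMSO read at 540 nm. GI50 is the concentration giving 50% growth rate (T/C %, corrected for day-of-addition absorbance), interpolated between two bracketing concentrations.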

Test [3] has as its system human colon cancer cell strain HT29. The test is described as follows: Cell growth inhibition test (MTT), HT29. It is filed as cell-based. Conditions: HT-29, 72 h, HT29, 3 days culture, read-out: concentration exhibiting anti-cell effect (GI50). The gist of the method: as §1
Test [4] concerns human endometrial cancer cell strain AN3CA. The test is described as follows: Cell growth inhibition test (MTT), AN3CA. It is filed as cell-based. Conditions: AN3-CA, 72 h, 3 days culture, read-out: concentration exhibiting anti-cell effect (GI50). The gist of the method:
as §1

pIC50: −log10 of the molar value. Bounds are passed on as bounds.

T1 sequence (P42345 1362-2549): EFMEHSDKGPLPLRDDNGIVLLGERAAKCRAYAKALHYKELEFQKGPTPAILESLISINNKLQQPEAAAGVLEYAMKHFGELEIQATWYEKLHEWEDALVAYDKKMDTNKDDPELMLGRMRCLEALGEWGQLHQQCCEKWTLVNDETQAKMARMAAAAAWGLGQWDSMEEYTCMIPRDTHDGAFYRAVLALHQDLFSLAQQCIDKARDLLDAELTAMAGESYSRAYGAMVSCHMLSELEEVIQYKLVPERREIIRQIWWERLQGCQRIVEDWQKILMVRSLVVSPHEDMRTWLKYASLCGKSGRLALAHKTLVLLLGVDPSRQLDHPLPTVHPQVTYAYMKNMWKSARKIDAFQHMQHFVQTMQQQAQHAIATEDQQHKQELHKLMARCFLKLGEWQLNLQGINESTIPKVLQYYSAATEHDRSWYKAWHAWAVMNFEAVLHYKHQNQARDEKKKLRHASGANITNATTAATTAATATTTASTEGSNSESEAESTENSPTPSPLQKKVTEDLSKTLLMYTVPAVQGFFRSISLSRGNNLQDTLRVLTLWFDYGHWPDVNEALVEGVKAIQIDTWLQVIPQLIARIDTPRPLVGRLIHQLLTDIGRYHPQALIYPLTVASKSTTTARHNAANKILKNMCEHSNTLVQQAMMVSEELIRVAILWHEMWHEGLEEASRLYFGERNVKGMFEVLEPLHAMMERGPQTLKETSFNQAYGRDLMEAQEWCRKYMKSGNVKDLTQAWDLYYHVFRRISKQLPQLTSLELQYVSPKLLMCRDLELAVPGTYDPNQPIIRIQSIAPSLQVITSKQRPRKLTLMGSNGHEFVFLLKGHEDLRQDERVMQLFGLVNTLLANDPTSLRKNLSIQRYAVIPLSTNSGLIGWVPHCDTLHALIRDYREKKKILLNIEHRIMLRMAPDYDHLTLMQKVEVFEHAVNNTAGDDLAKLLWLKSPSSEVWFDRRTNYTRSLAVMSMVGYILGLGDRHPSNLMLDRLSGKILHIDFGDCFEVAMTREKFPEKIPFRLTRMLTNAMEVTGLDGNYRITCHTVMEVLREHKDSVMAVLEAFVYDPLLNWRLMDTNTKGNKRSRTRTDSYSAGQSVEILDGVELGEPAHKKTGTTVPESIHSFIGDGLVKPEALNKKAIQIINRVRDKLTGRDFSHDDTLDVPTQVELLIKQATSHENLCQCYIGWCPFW

Turning to `CC(C)Cn1c(N2CCN(S(C)(=O)=O)CC2)nc2c(N3CCOCC3)nc(-c3cnc(N)nc3)nc21` [Example 1, 5-{9-Isobutyl-8-[4-(methylsulfonyl)piperazin-1-yl]-6-morpholin-4-yl-9H-purin-2-yl}pyrimidin-2-amine], in test [1], the negative-log IC50 (pIC50) is 7.52 to 8.00. Further, the GI50 in test [2], in test [3] and in test [4] was not above 5 µM throughout.
For the compound `CC(=O)N1CCN(c2nc3c(N4CCOCC4)nc(-c4cnc(N)nc4)nc3n2CC(C)C)CC1` [Example 2, 5-[8-(4-Acetylpiperazin-1-yl)-9-isobutyl-6-morpholin-4-yl-9H-purin-2-yl]pyrimidin-2-amine], in test [1], the pIC50 is 7.52 to 8.00. Besides, the GI50 in test [2], in test [3] and in test [4] was not above 5 µM throughout.
`CS(=O)(=O)N1CCN(c2nc3c(N4CCOCC4)nc(-c4cnc(N)nc4)nc3n2CC2CC2)CC1` [Example 3, 5-{9-(Cyclopropylmethyl)-8-[4-(methylsulfonyl)piperazin-1-yl]-6-morpholin-4-yl-9H-purin-2-yl}pyrimidin-2-amine]: the pIC50 in test [1] is 7.52 to 8.00. The GI50 in test [2], in test [3] and in test [4] was not above 5 µM each time.
Turning to `Cc1nc(N)ncc1-c1nc(N2CCOCC2)c2nc(N3CCN(S(C)(=O)=O)CC3)n(CC3CC3)c2n1` [Example 6, 5-{9-(Cyclopropylmethyl)-8-[4-(methylsulfonyl)piperazin-1-yl]-6-morpholin-4-yl-9H-purin-2-yl}-4-methylpyrimidin-2-amine], the pIC50 in test [1] is 6.30 to 7.00. Also, the GI50 in test [2], in test [3] and in test [4] was not above 5 µM each time.
On to `CS(=O)(=O)N1CCN(c2nc3c(N4CCOCC4)nc(-c4cnc(N)nc4)nc3n2CC(F)(F)F)CC1` [Example 8, 5-{8-[4-(Methylsulfonyl)piperazin-1-yl]-6-morpholin-4-yl-9-(2,2,2-trifluoroethyl)-9H-purin-2-yl}pyrimidin-2-amine], for which, in test [1], the pIC50 was more than 8.00. Further, the GI50 in test [2], in test [3] and in test [4] was not above 5 µM in each case.
For the compound `CC(=O)N1CCN(c2nc3c(N4CCOCC4)nc(-c4cnc(N)nc4)nc3n2CC2CC2)CC1` [Example 10, 5-[8-(4-Acetylpiperazin-1-yl)-9-(cyclopropylmethyl)-6-morpholin-4-yl-9H-purin-2-yl]pyrimidin-2-amine], the pIC50 in test [1] was 7.52 to 8.00. Also, the GI50 in test [2], in test [3] and in test [4] was not above 5 µM throughout.
On to `CNc1ncc(-c2nc(N3CCOCC3)c3nc(N4CCN(S(C)(=O)=O)CC4)n(CC(F)(F)F)c3n2)cn1` [Example 11, N-Methyl-5-{8-[4-(methylsulfonyl)piperazin-1-yl]-6-morpholin-4-yl-9-(2,2,2-trifluoroethyl)-9H-purin-2-yl}pyrimidin-2-amine], for which the pIC50 in test [1] was more than 8.00. The GI50 in test [2], in test [3] and in test [4] was not above 5 µM in each case.
With `C[C@@H]1CN(c2nc3c(N4CCOCC4)nc(-c4cnc(N)nc4)nc3n2CC(F)(F)F)C[C@H](C)N1` [Example 14, 5-[8-(cis-3,5-Dimethylpiperazin-1-yl)-6-morpholin-4-yl-9-(2,2,2-trifluoroethyl)-9H-purin-2-yl]pyrimidin-2-amine], the pIC50 in test [1] was 7.52 to 8.00. Further, the GI50 in test [2], in test [3] and in test [4] was not above 5 µM in each case.
Consider `CC(C)Cn1c(N2CCN(S(C)(=O)=O)[C@@H](C)C2)nc2c(N3CCOCC3)nc(-c3cnc(N)nc3)nc21` [Example 53, 5-{9-Isobutyl-8-[(3S)-3-methyl-4-(methylsulfonyl)piperazin-1-yl]-6-morpholin-4-yl-9H-purin-2-yl}pyrimidin-2-amine], for which the pIC50 in test [1] is 7.52 to 8.00. In addition, the GI50 in test [2], in test [3] and in test [4] was not above 5 µM each time.
On to `CC(C)Cn1c(N2CCN(S(C)(=O)=O)[C@H](C)C2)nc2c(N3CCOCC3)nc(-c3cnc(N)nc3)nc21` [Example 54, 5-{9-Isobutyl-8-[(3R)-3-methyl-4-(methylsulfonyl)piperazin-1-yl]-6-morpholin-4-yl-9H-purin-2-yl}pyrimidin-2-amine], for which the negative-log IC50 (pIC50) in test [1] was 7.00 to 7.52. In addition, the GI50 in test [2], in test [3] and in test [4] was not above 5 µM in each case.
For the compound `CC(C)Cn1c(N2CCN(C(=O)CN(C)C)CC2)nc2c(N3CCOCC3)nc(-c3cnc(N)nc3)nc21` [Example 55, 5-(8-{4-[(Dimethylamino)acetyl]piperazin-1-yl}-9-isobutyl-6-morpholin-4-yl-9H-purin-2-yl)pyrimidin-2-amine], the pIC50 in test [1] is 7.00 to 7.52. For the same compound, the GI50 in test [2], in test [3] and in test [4] was not above 5 µM in each case.
In the case of `CS(=O)(=O)C1CCN(c2nc3c(N4CCOCC4)nc(-c4cnc(N)nc4)nc3n2CC(F)(F)F)CC1` [Example 57, 5-{8-[4-(Methylsulfonyl)piperidin-1-yl]-6-morpholin-4-yl-9-(2,2,2-trifluoroethyl)-9H-purin-2-yl}pyrimidin-2-amine], the pIC50 in test [1] is more than 8.00. Further, the GI50 in test [2], in test [3] and in test [4] was not above 5 µM throughout.
Regarding `CC(=O)N1CCN(c2nc3c(N4CCOCC4)nc(-c4cnc(N)nc4)nc3n2CC(F)(F)F)C[C@H]1C` [Example 60, 5-{8-[(3R)-4-Acetyl-3-methylpiperazin-1-yl]-6-morpholin-4-yl-9-(2,2,2-trifluoroethyl)-9H-purin-2-yl}pyrimidin-2-amine], the pIC50 in test [1] was more than 8.00. The GI50 in test [2], in test [3] and in test [4] was not above 5 µM each time.
For `C[C@@H]1CN(c2nc3c(N4CCOCC4)nc(-c4cnc(N)nc4)nc3n2CC(F)(F)F)CCN1S(C)(=O)=O` [Example 61, 5-{8-[(3R)-3-Methyl-4-(methylsulfonyl)piperazin-1-yl]-6-morpholin-4-yl-9-(2,2,2-trifluoroethyl)-9H-purin-2-yl}pyrimidin-2-amine], the pIC50 in test [1] was 7.52 to 8.00. Moreover, the GI50 in test [2], in test [3] and in test [4] was not above 5 µM in each case.
For `C[C@H]1CN(c2nc3c(N4CCOCC4)nc(-c4cnc(N)nc4)nc3n2CC(F)(F)F)CCN1S(C)(=O)=O` [Example 62, 5-{8-[(3S)-3-Methyl-4-(methylsulfonyl)piperazin-1-yl]-6-morpholin-4-yl-9-(2,2,2-trifluoroethyl)-9H-purin-2-yl}pyrimidin-2-amine], the pIC50 in test [1] is more than 8.00. The GI50 in test [2], in test [3] and in test [4] was not above 5 µM in each case.
Regarding `CC(=O)N1CCN(c2nc3c(N4CCOCC4)nc(-c4cnc(N)nc4)nc3n2CC(F)(F)F)C[C@@H]1C` [Example 63, 5-{8-[(3S)-4-Acetyl-3-methylpiperazin-1-yl]-6-morpholin-4-yl-9-(2,2,2-trifluoroethyl)-9H-purin-2-yl}pyrimidin-2-amine], in test [1], the pIC50 is more than 8.00. In addition, the GI50 in test [2], in test [3] and in test [4] was not above 5 µM throughout.
`CS(=O)(=O)N1CCN(c2nc3c(N4CCOCC4)nc(-c4cnc(N)nc4)nc3n2CC(F)F)CC1` [Example 64, 5-{9-(2,2-Difluoro-ethyl)-8-[4-(methylsulfonyl)piperazin-1-yl]-6-morpholin-4-yl-9H-purin-2-yl}pyrimidin-2-amine]: the pIC50 in test [1] was more than 8.00. Besides, the GI50 in test [2], in test [3] and in test [4] was not above 5 µM in each case.
In the case of `CC(=O)C(=O)N1CCN(c2nc3c(N4CCOCC4)nc(-c4cnc(N)nc4)nc3n2CC(F)(F)F)CC1` [Example 65, 1-{4-[2-(2-Aminopyrimidin-5-yl)-6-morpholin-4-yl-9-(2,2,2-trifluoroethyl)-9H-purin-8-yl]piperazin-1-yl}-1-oxoacetone], in test [1], the pIC50 is more than 8.00. The GI50 in test [2], in test [3] and in test [4] was not above 5 µM in each case.
With `CN(C)C(=O)C(=O)N1CCN(c2nc3c(N4CCOCC4)nc(-c4cnc(N)nc4)nc3n2CC(F)(F)F)CC1` [Example 66, 2-{4-[2-(2-Aminopyrimidin-5-yl)-6-morpholin-4-yl-9-(2,2,2-trifluoroethyl)-9H-purin-8-yl]piperazin-1-yl}-N,N-dimethyl-2-oxoacetamide], in test [1], the pIC50 was more than 8.00. Besides, the GI50 in test [2], in test [3] and in test [4] was not above 5 µM in each case.
As for `Nc1ncc(-c2nc(N3CCOCC3)c3nc(N4CCN(C(=O)CO)CC4)n(CC(F)(F)F)c3n2)cn1` [Example 67, 2-{4-[2-(2-Aminopyrimidin-5-yl)-6-morpholin-4-yl-9-(2,2,2-trifluoroethyl)-9H-purin-8-yl]piperazin-1-yl}-2-oxoethanol], the pIC50 in test [1] is more than 8.00. For the same compound, the GI50 in test [2], in test [3] and in test [4] was not above 5 µM throughout.

The values are drawn from patent US8309546B2, “Morpholinopurine derivatives” (Daiichi Sankyo Company, Limited, priority 2008, dated 2012).
